# Experimental data as given in patent US10246712B2, “Genetic or pharmacological reduction of PERK enhances cortical- and hippocampus-dependent cognitive function” (Carmel-Haifa University Economic Corp. Ltd, priority 2015, dated 2019).
# Key:
# [1] = target: T1, PERK (Rattus norvegicus, UniProt Q9Z1Z1); format: in vivo; conditions: 0.1% saccharin; 1 μl 100 nM into IC 20 min prior to novel taste; test day1; n=8
# T1 construct: the PERK shRNA lentivirus was stereotacticaly injected to the IC of adult rats; from tissue; host or cells: insular cortex of adult male Wistar Hola rats, in vivo
# T1 sequence (Q9Z1Z1 28-1108): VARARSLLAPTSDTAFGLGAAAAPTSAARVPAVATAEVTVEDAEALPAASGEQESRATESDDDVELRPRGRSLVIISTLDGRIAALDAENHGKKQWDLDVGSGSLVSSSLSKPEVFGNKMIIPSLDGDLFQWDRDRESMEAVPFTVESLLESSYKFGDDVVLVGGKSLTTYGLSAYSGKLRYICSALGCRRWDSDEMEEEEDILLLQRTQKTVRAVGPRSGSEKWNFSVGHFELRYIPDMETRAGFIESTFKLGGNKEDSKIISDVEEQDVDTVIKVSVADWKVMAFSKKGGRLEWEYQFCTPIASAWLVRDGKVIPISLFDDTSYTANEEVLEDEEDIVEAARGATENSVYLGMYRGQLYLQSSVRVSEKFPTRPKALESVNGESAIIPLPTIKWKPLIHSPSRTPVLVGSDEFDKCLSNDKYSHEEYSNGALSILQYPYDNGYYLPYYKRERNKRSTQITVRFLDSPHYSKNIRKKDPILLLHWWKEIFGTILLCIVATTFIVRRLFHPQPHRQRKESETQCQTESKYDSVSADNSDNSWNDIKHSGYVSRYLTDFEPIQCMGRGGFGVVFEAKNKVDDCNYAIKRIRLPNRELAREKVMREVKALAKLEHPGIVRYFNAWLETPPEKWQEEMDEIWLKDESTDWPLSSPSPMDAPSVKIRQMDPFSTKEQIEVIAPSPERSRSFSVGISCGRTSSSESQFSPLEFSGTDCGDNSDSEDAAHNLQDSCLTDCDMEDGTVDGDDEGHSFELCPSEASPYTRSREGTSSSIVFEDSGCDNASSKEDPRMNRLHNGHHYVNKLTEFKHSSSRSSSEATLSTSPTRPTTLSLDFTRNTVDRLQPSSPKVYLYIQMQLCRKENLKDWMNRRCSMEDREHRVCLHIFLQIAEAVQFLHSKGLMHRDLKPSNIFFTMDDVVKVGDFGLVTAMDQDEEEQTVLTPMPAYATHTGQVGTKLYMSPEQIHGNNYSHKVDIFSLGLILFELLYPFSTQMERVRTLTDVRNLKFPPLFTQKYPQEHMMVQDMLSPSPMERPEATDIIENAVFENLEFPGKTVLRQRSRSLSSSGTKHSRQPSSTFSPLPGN
# Description: For virus infusions, rats were first anesthetized with Ketamine (120 mg/kg) and Xylazine (6 mg/kg) and placed into a stereotactic frame (Steolting Europe, Dublin—Ireland) (Using a 32-gauge stainless steel injector attached to a stereotactic infusion pump, rats received 1 μl of lentivirus encoding PERK shRNA or lentivirus harboring a scrambled sequence over 10 min into the insular cortex (anteroposterior, +1.2 mm relative to bregma; lateral, ±5.5 mm; ventral, −6.0 mm) according to the atlas of Paxinos, G. & Watson, C. (2006). The injector was lets in place for 5 min before and after infusion to minimize fluid retraction. The rats were allowed at least 7 days to recover from the surgery before any behavior experiments were conducted.
# The rats were cannulated as described in Barki-Harrington et al. (2009). […]
# The rats were separated into individual housing cages and underwent a 3-day water-restriction training session, in which once a day for 20 min, they were offered 20 ml of water from two pipettes, each containing 10 ml. […] The behavioral data are presented in terms of preference index, expressed as a percentage, [ml saccharin/(ml water plus ml saccharin)]×100, in which the quantities are those consumed during each test.
# [2] = target: T1, PERK; format: in vivo
# Description: Briefly, the rats were anesthetized by administration of equithesin (0.3 ml/100 g), comprising 2.12% (w/v) MgSO4, 10% (v/v) ethanol, 39.1% (v/v) propyleneglycol, 0.98% (w/v) sodium pentobarbital, and 4.2% (w/v) chloral hydrate. They were restrained in a stereotactic frame (Steolting Europe, Dublin-Ireland) and stainless steel guide cannulae (23-gauge) were bilaterally implanted into the insular cortex, angled at (with reference to bregma), anteroposterior=+1.2 mm, lateral±5.5 mm, and ventral 5.0 mm (1 mm ahead of injecting cannula). Two skull screws were inserted into the skull, and acrylic dental cement was applied to secure the cannulae in position. A 28 gauge stylus was inserted into each guide cannula to prevent clogging. The rats were allowed a week in individual cages to recover from the surgery, before the experimental manipulation. PERK inhibitor GSK2606414 (Axten et al., 2012) was dissolved in DMSO and further diluted in saline to a final DMSO concentration of 0.5%. A total of 1 μl of 100 nM GSK2606414 or vehicle was infused bilaterally. For microinfusion, the stylus was removed from the guide cannula and a 28 gauge injection cannula was carefully inserted, to extend 1.0 mm beyond the tip of the guide cannula. The injection cannula was connected via PE20 tubing to a Hamilton syringe (Hamilton) driven by a CMA/100 microinjection pump (Carnegie Medicine), to provide an injection rate of 1 μl/min. After 1 min of infusion, the injection cannula was kept in the guide cannula for an additional minute to minimize dragging of infused solutes along the injection tract. Locations of cannula were verified in 30 μm coronal sections.
# Aversion to the novel taste, 0.3% NaCl was measured as described below.
# [3] = system: PERK; format: in vivo, mouse; conditions: CA1 punches after 100 nM infusion into CA1; vs vehicle
# Excerpt: Animals were anesthetized under 2% isoflurane using an isoflurane table top unit (HME109, Highland Medical Equipment). Under aseptic conditions, a rodent stereotaxic apparatus (Kopf Stereotaxic Alignment System Model 1900) with continuous 1% isoflurane anesthesia was used. For CA1 infusion cannula was implanted bilaterally into the CA1 region (from the bregma: −1.94 mm AP, ±1.0 mm ML, −1.0 mm DV). The implanted cannula was cemented on the skull. Each cannula was fitted with a 28 gauge dummy cannula that extended 0.1 mm beyond the tip of the guide cannula to prevent blockage of the guide cannula. After cannulation, mice were allowed to recover for 7 days before infusion of PERK inhibitor or vehicle and behavior. On conditioning day, randomly assigned mice were infused with 100 nM PERK inhibitor GSK2606414 (Axten et al., 2012) dissolved in dimethyl sulfoxide (DMSO) and further diluted in saline to a final DMSO concentration of 0.5%, via a 28-gauge infusion cannula connected by polyethylene (PE 20) tubing to a 10 μL Hamilton microsyringe (Hamilton Company). The infusion cannula protruded 0.25 mm beyond the guide cannula. For CA1 administration, infusion volume of 1 μl of 100 nM GSK2606414 or vehicle was delivered using a Harvard PHD2000 syringe pump (Harvard Apparatus) over the course of 1 min (at a rate of 1 μL/min). […]
# [4] = target: T2, PERK (Mus musculus, UniProt Q9Z2B5); format: in vivo
# T2 construct: from tissue; host or cells: CA1 region of the hippocampus of C57BL/6 mice, in vivo
# T2 sequence (Q9Z2B5 29-1114): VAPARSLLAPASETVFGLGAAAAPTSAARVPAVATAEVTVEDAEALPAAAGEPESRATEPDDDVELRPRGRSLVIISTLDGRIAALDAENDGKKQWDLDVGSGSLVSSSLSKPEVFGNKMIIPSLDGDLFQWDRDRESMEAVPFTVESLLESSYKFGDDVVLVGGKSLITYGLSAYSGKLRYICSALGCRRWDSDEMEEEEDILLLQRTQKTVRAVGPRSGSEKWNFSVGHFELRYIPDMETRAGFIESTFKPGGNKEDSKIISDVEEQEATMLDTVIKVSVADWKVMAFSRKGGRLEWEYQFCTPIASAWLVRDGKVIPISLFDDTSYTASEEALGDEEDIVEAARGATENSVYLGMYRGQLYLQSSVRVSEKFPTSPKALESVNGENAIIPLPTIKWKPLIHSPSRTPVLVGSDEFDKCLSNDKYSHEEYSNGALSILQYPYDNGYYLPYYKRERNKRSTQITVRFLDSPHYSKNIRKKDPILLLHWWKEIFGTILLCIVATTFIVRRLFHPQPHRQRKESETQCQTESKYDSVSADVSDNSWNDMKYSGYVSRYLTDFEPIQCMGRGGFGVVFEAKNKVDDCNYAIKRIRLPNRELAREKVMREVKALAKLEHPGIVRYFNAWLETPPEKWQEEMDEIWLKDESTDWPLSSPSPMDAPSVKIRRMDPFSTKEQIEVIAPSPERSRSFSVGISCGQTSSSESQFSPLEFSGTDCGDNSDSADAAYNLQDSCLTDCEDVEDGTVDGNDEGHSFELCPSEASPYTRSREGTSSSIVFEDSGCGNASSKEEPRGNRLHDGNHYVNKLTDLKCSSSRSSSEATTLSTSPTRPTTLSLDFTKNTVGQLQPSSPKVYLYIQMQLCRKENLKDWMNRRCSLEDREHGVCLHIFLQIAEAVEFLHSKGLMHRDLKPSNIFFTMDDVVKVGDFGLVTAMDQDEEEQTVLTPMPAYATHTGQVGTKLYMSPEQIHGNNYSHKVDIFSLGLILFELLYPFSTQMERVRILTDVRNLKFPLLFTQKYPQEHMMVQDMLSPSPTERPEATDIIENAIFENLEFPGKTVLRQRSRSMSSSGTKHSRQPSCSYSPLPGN
# Excerpt: Animals were anesthetized under 2% isoflurane using an isoflurane table top unit (HME109, Highland Medical Equipment). Under aseptic conditions, a rodent stereotaxic apparatus (Kopf Stereotaxic Alignment System Model 1900) with continuous 1% isoflurane anesthesia was used. For CA1 infusion cannula was implanted bilaterally into the CA1 region (from the bregma: −1.94 mm AP, ±1.0 mm ML, −1.0 mm DV). The implanted cannula was cemented on the skull. Each cannula was fitted with a 28 gauge dummy cannula that extended 0.1 mm beyond the tip of the guide cannula to prevent blockage of the guide cannula. After cannulation, mice were allowed to recover for 7 days before infusion of PERK inhibitor or vehicle and behavior. On conditioning day, randomly assigned mice were infused with 100 nM PERK inhibitor GSK2606414 (Axten et al., 2012) dissolved in dimethyl sulfoxide (DMSO) and further diluted in saline to a final DMSO concentration of 0.5%, via a 28-gauge infusion cannula connected by polyethylene (PE 20) tubing to a 10 μL Hamilton microsyringe (Hamilton Company). The infusion cannula protruded 0.25 mm beyond the guide cannula. For CA1 administration, infusion volume of 1 μl of 100 nM GSK2606414 or vehicle was delivered using a Harvard PHD2000 syringe pump (Harvard Apparatus) over the course of 1 min (at a rate of 1 μL/min). After infusion, the injection cannula was kept in the guide cannula for an additional minute to minimize dragging of infused solutes along the injection tract. Locations of cannula were verified in 30 μm coronal sections.
# Model chambers measuring 25×25×25 cm internally (Panlab, Harvard Apparatus) were located inside a larger, insulated plastic cabinet that excluded external light and noise. For the trace fear conditioning protocol, mice were placed in a chamber (with light [20 W bulb] and a 16 bar metal grid floor) for 120 s, after which the mice received a 2.9 kHz tone, applied for 20 s at 80 dB (conditioned stimulus) and a 0.5 mA footshock applied for 2 s (unconditioned stimulus) 20 s following the end of the conditioned stimulus. This protocol was repeated 5 times, where each tone-shock presentation was separated by a 2-minute interval. After administration of the last shock, animals remained in the chamber for 2 minutes before they were taken back to the home cage. The chambers were cleaned with 10% ethanol between successive sets of mice. Animals from control and treatment groups were randomized between the 4 different chambers.
# [5] = 100 nM bilateral infusion to CA1 50 min prior to acquisition, 48 h after conditioning, vs vehicle
compound,measurement,setting,value
"Cn1cc(-c2ccc3c(c2)CCN3C(=O)Cc2cccc(C(F)(F)F)c2)c2c(N)ncnc21 [GSK2606414, 7-methyl-5-(1-{[3-(trifluoromethyl)phenyl]acetyl}-2,3-dihydro-1H-indol-5-yl)-7H-pyrrolo[2,3-d]pyrimidin-4-amine]",preference index,[1],83%±2.2
same,aversion index (CTA memory),"[2]; 0.3% NaCl + 0.075 M LiCl i.p., 1 μl 100 nM into IC 20 min prior to novel taste, n=8",72%±3.5
same,extinction of CTA,[2]; single injection of 100 nM into IC during CTA,not affected
same,total drinking volumes,"[2]; vs vehicle group throughout the behavioral procedure, data not shown",similar
same,total PERK levels,[3],no effect
same,freezing during tone presentation (tone memory),[4]; [5],enhanced freezing
same,freezing in the trace interval following the tone (trace memory),[4]; [5],enhanced freezing
same,context memory (freezing),"[4]; 100 nM bilateral infusion to CA1, 24 h after conditioning, vs vehicle",not altered
same,extinction (cue and trace),[4]; 100 nM infusion to CA1 at the time of conditioning,no effect
